{"source": "patent US20160289280A1", "about": "“Fusion protein of recombinant ganoderma immunoregulatory protein and human serum albumin, preparation method thereof, and application thereof” (priority 2013, published 2016)", "key": {"[1]": {"test_system": "mouse transplanted tumor S180", "assay": "subcutaneous inhibition of mouse transplanted tumor S180", "format": "in vivo", "details": "positive control 20 mg·kg^−1, abdominally injected", "description": "In vivo experiment: experimental material: mice weighing 18-22 g from Laboratory Animal Center of Jilin University; Ehrlich ascites tumor cell strains are provided by a lab of the inventor; cytoxan (CTX) is from Jiangsu Hengrui Medicine Co., Ltd, whose batch number is 06101921; 5180 ascites tumor and soild tumor experimental groups respectively comprises a normal control group, a negative control group, a positive control group, an rLZ-8 low-dosage group (0.25 mg·kg^−1), an rLZ-8 middle-dosage group (0.5 mg·kg^−1), an rLZ-8 high-dosage group (1 mg·kg^−1), an rLZ-8-HSA low-dosage group (0.25 mg·kg^−1), an rLZ-8-HSA middle-dosage group (0.5 mg·kg^−1), and an rLZ-8-HSA high-dosage group (1 mg·kg^−1), wherein dosages of the rLZ-8-HSA groups are judged from LZ-8 dosage, wherein each group comprises 10 mice.\ntumor inhibition rate (%)=(average tumor weight of control groups−average tumor weight of experimental groups)/average tumor weight of control groups×100%."}, "[2]": {"test_system": "mouse melanoma cells B16-F10", "assay": "mouse B16-F10 transplanted tumor model, in situ tumor weight", "format": "in vivo", "details": "2.5 mg/kg, 5 days, again after 3 weeks, 28 day cycle", "description": "In vivo experiment: firstly, establishing a mouse tumor mould, wherein mouse melanoma cells B16-F10 is cultured with the DMEM comprising 10% fetal calf serum at 37° C. in a CO2 incubation device; slowly subcutaneously injecting 200 μl B16-F10 cell suspension (comprising 1×10^7 cells) with a 1 ml injector at mouse dorsal-ventral skin, so as to establish a mouse transplanted tumor mould."}, "platelets": {"test_system": "platelets", "assay": "treatment of mouse thrombocytopenia caused by cyclophosphamide, platelet count", "format": "in vivo", "description": "Experimental medicine: preparing a 19.25 μg·kg^−1 and a 9.625 μg·kg^−1 dosage groups of the recombinant ganoderma immunoregulatory protein (rLZ-8) with sterile injection water, and 0.2 ml per mouse; and preparing a 19.25 μg·kg^−1 and a 9.625 μg·kg^−1 dosage groups (judging from the LZ-8) of the fusion protein rLZ-8-HSA of the recombinant ganoderma immunoregulatory protein.\nPositive control medicine: thrombopoietin (THPO) from Shenyang 3SBio Inc., with a dosage of 770 μg·kg^−1/d and 0.2 ml per mouse.\nChemotherapy medicine: cyclophosphamide (Cy) from Jiangsu Hengrui Medicine Co., Ltd, whose batch number is 12112121, 200 mg/bottle; preparing into 100 mg·kg^−1, 0.2 ml per mouse with sterile injection water.\nPlatelet dilution: urea: 1.3 g; sodium citrate: 0.5 g; formaldehyde: 0.1 ml; adding distilled water to 100 ml for mixing, then filtering for further utilization.\nExperimental method: dividing experimental animals into 5 groups, wherein each group comprises 10 mice with 5 males and 5 females; except for a normal control group (injected with normal saline having an equal volume), abdominally injecting the cyclophosphamide to the mice with a dosage of 100 mg·kg^−1, 0.2 ml per mouse per day, and lasting for three days; when a platelet quantity decreased to below 300×10^9/L, subcutaneously injecting the rLZ-8, the fusion protein rLZ-8-HAS (19.25 μg·kg^−1, 9.625 μg·kg^−1, 0.2 ml·per mouse per day) and the positive medicine (THPO 770 μg·kg^−1, 0.2 ml·per mouse per day) according to the above groups with corresponding dosages, and injecting the normal saline having the equal volume to the normal control group and a CP group; respectively sampling mouse tail vein blood 3 d, 7 d and 14 d after treatment, counting platelets with high power lens, wherein results thereof are listed in table 7."}, "mouse spleen cells": {"test_system": "mouse spleen cells", "assay": "promotion of mouse spleen cell proliferation, WST-1 method", "format": "cell-based", "details": "for OD450, promotion of cell proliferation: 24 h, x ± s, n = 9; for promotion of spleen cell proliferation compared with rLZ-8: same protein concentration", "description": "Testing effects of the fusion proteins on mouse spleen cell proliferation by a WST-1 method, which illustrates strength of biological activity, wherein according to the present invention, BALB/c female mice are used, whose weight is controlled at 20-22 g; executing the mice by stretching necks thereof, taking out spleens under a sterile condition, and putting into a plate with 5 ml DMEM comprising 10% calf serum; cracking the spleens with tweezers, filtering tissue suspension with gauze for removing tissue blocks, and preparing cell suspension of spleen cells; adding 100 μl the tissue suspension into 900 μl 2% glacial acetic acid for counting with a microscope; adjusting a cell concentration to 5×10^6/ml with DMEM comprising 2% calf serum; respectively preparing the fusion proteins and the rLZ-8 with same molar concentration gradient, wherein there are 3 gradient concentrations, each concentration occupies 9 wells with 100 μl per well; adding tissue suspension with a concentration of 5×10^6/ml with 100 μl per well; shaking for evenly mixing, and then putting into a 37° C., 5% CO2 incubation device to incubate for 24 h; after incubation, adding WST-1 with 20 μl per well; putting into the 37° C., 5% CO2 incubation device to incubate for 3 h, then testing OD450 (with a BIO-RAD); wherein results are listed in table 1."}, "leukocytes": {"test_system": "leukocytes", "assay": "treatment of rat models with leucopenia caused by cyclophosphamide, leukocyte count", "format": "in vivo", "details": "positive medicine 13.5 μg/ml, 0.1 ml per rat", "text": "Utilizing Wistar rats in the experiments, wherein 18 rats weighing about 100 g are utilized. […] The experiment has an rLZ-8 low-dosage group, an rLZ-8 middle-dosage group, an rLZ-8 high-dosage group, an rLZ-8-HSA low-dosage group, an rLZ-8-HSA middle-dosage group, an rLZ-8-HSA high-dosage group, and a positive medicine control group (utilizing the […]®). […] On the third day, the blood is sampled from the tail vein, and the leukocytes are counted by a cytoanalyzer. After successful modeling, the rats of each the group are respectively treated with the rLZ-8, the three kinds of the fusion proteins, or the positive medicine (the […]®) with the corresponding dosage, and the equal sterile saline is given to the rats of the normal control and a CP group. The blood is sampled from the tail vein on the first, third and seventh treatment days, and the leukocytes are counted by the cytoanalyzer. Medicine efficacy is analyzed according to a number difference of the leukocyte between before and after the treatment."}, "[3]": {"details": "770 μg·kg^−1 subcutaneously per day"}}, "note": "Marks after values point to notes of the source that are not given here.", "data": [{"molecule": "O=P1(N(CCCl)CCCl)NCCCO1", "note": "(stereo not drawn) [CTX, cyclophosphamide, reference compound]", "values": [{"measurement": "Inhibition rate", "setting": "[1]", "result": 64.3, "unit": "%"}, {"measurement": "tumor weight", "setting": "[1]", "result": "0.36 ± 0.02", "unit": "g"}]}, {"molecule": "CN(C)/N=N/c1[nH]cnc1C(N)=O", "note": "[dacarbazine, reference compound]", "values": [{"measurement": "tumor inhibition rate", "setting": "[2]", "result": "62.57 ± 0.27", "unit": "%"}, {"measurement": "tumor weight", "setting": "[2]", "result": "0.52 ± 0.12", "unit": "g"}]}, {"molecule": "THPO: thrombopoietin (THPO) from Shenyang 3SBio Inc., positive control medicine [reference compound]", "values": [{"measurement": "platelets after", "setting": "platelets; 770 μg·kg^−1 group, after cyclophosphamide, before treatment", "result": "284 ± 0.19 *10^9/L"}, {"measurement": "platelets before", "setting": "platelets; 770 μg·kg^−1 group, baseline before cyclophosphamide", "result": "851 ± 0.34 *10^9/L"}, {"measurement": "platelets 3rd day", "setting": "platelets; [3]", "result": "390 ± 0.38 *10^9/L"}, {"measurement": "platelets 7th day", "setting": "platelets; [3]", "result": "420 ± 0.32 *10^9/L"}, {"measurement": "platelets 14th day", "setting": "platelets; [3]", "result": "689 ± 0.65 *10^9/L"}]}, {"molecule": "rLZ-8-Fc4: fusion protein of ganoderma immunoregulatory protein (LZ-8) and human IgG4Fc fragment, SEQ ID NO. 3", "values": [{"measurement": "OD450, promotion of cell proliferation", "setting": "mouse spleen cells; protein 5.0 × 10^−9 mol/L", "result": "0.452 ± 0.43"}, {"measurement": "OD450, promotion of cell proliferation", "setting": "mouse spleen cells; protein 10.0 × 10^−9 mol/L", "result": "0.840 ± 0.27"}, {"measurement": "OD450, promotion of cell proliferation", "setting": "mouse spleen cells; protein 15.0 × 10^−9 mol/L", "result": "0.929 ± 0.21"}, {"measurement": "promotion of spleen cell proliferation compared with rLZ-8", "setting": "mouse spleen cells", "result": "significantly decreased"}]}, {"molecule": "rLZ-8-Fc1: fusion protein of ganoderma immunoregulatory protein (LZ-8) and human IgG1Fc fragment, SEQ ID NO. 2 (protein, rLZ-8-Fc1 sequence) RPSDTALIFRLAWDVKKLSFDYTPNWGRGNPNNFIDTVTFPKVLTDKAYTYRVAVSGRNLGVKPSYAVESDGSGKVNFLEYNSGYGIADTNTIGVFVVDPDTNNDFIIAGWNGGGGSSEPKSCDKTHTCPPCPAPELLGGPSVFLFPPKPKDTLMISRTPEVTCVVVDVSHEDPEVKFNWYVDGVEVHNAKTKPREEGYNSTYRVVSVLTVLHGDWLNGKEYKCKVSNKALPAPIEKTISKAKGGPREPGVYTLPPSREEMTKNGVSLTCLVKGFYPSDIAVEWESNGGPENNYKTTPPVLDSDGSFFLYSKLTVDKSRWGGGNVFSCSVMHEALHNHYTGKSLSLSPGK", "values": [{"measurement": "OD450, promotion of cell proliferation", "setting": "mouse spleen cells; protein 5.0 × 10^−9 mol/L", "result": "0.543 ± 0.26"}, {"measurement": "OD450, promotion of cell proliferation", "setting": "mouse spleen cells; protein 10.0 × 10^−9 mol/L", "result": "0.937 ± 0.29"}, {"measurement": "OD450, promotion of cell proliferation", "setting": "mouse spleen cells; protein 15.0 × 10^−9 mol/L", "result": "1.114 ± 0.31"}, {"measurement": "promotion of spleen cell proliferation compared with rLZ-8", "setting": "mouse spleen cells", "result": "significantly decreased"}]}, {"molecule": "GenLei ® Scimax ®: recombinant human granulocyte colony-stimulating factor injection (rhG-CSF), positive medicine (protein, UniProt P09919 31-207, looked up) Granulocyte …: TPLGPASSLPQSFLLKCLEQVRKIQGDGAALQEKLVSECATYKLCHPEELVLLGHSLGIPWAPLSSCPSQALQLAGCLSQLHSGLFLYQGLLQALEGISPELGPTLDTLQLDVADFATTIWQQMEELGMAPALQPTQGAMPAFASAFQRRAGGVLVASHLQSFLEVSYRVLRHLAQP", "values": [{"measurement": "leukocyte number on the first treatment day", "setting": "leukocytes", "result": "6.4e+09", "unit": "L⁻¹"}, {"measurement": "leukocyte number on the seventh treatment day", "setting": "leukocytes", "result": "1.117e+10", "unit": "L⁻¹"}, {"measurement": "leukocyte number on the third treatment day", "setting": "leukocytes", "result": "1.183e+10", "unit": "L⁻¹"}, {"measurement": "leukocyte number before", "setting": "leukocytes; baseline after CP modeling, before treatment", "result": "4.55e+09", "unit": "L⁻¹"}]}]}
